A short description of the series: method code SF-AS, from DOI: 10.1098/rspb.1976.0034, PMID: 5728. Particulars: pH 4.5.
With `CCCOC(=O)c1ccc(S(N)(=O)=O)cc1`, the logD worked out at 1.75.
`CCNC(=O)c1ccc(S(N)(=O)=O)cc1`: the logD is 0.03.
For the compound `CCOC(=O)c1ccc(S(N)(=O)=O)cc1`, the logD was determined as 1.17.
For `CCCCc1ccc(S(N)(=O)=O)cc1` the value was 2.45; for `CCCNC(=O)c1ccc(S(N)(=O)=O)cc1`, 0.51.
The compound `CCc1ccc(S(N)(=O)=O)cc1` displayed a logD of 1.31.
For `CCCCCNC(=O)c1ccc(S(N)(=O)=O)cc1` the value was 1.51; for `CCCCNC(=O)c1ccc(S(N)(=O)=O)cc1`, 1.05.
Consider `CCCCCCNC(=O)c1ccc(S(N)(=O)=O)cc1`, for which the logD is 2.05.
For `CCCCOC(=O)c1ccc(S(N)(=O)=O)cc1` the value was 2.34.
In turn, `CCCc1ccc(S(N)(=O)=O)cc1` showed a logD of 1.64.
Regarding `CCCCCOC(=O)c1ccc(S(N)(=O)=O)cc1`, the log distribution coefficient (logD) stood at 2.71.
The compound `CNC(=O)c1ccc(S(N)(=O)=O)cc1` came in with a logD of -0.31.

For orientation: logD means lipophilicity at a set pH, counting ionised and neutral species. Low readings indicate a more hydrophilic compound, high ones a more lipophilic compound.

The record behind these values is the SangsterLogP compilation.
